According to US20060159669A1, “Novel uses of PPAR modulators and professional APCs manipulated by the same” (priority 2003, published 2006):
Entries after “also recorded” stand apart in the source; their conditions may differ.

Columns and labels:
CD1d = CD1d mRNA expression (RT-PCR, Affymetrix microarray) in monocyte-derived DC; assay type: cell-based, human; details: IDC; for Induction of CD1d by receptor-specific agonists: 2.5 microM RSG, 200 nM GW7845, 1 microM GW501516, 20 microM WY14643, 1 microM T0901317, FIG. 5B
Experimental: DC generation and maturation. Highly enriched monocytes (98% CD14+) were obtained from buffy coats of healthy donors (provided by the local blood center) by Ficoll gradient centrifugation and immunomagnetic cell separation using anti-CD14-conjugated microbeads (VarioMACS; Miltenyi Biotec). Human monocyte-derived IDCs were prepared as described previously (Sallusto and Lanzavecchia, 1994) with minor modification. In brief, monocytes were resuspended into six-well culture dishes at a density of 1.5×10^6 cells/ml and cultured in RPMI 1640 supplemented with 10% FBS (Invitrogen), containing 800 U/ml GM-CSF (Leucomax) and 500 U/ml IL-4 (Peprotech). Cells were cultured for 5 or 6 days and the IL-4 and GM-CSF addition was repeated at day 2 to obtain a population of immature DCs. In some experiments FBS was replaced with human AB serum (Sigma). To obtain MDCs, IDCs were treated with a mixture of cytokines: 10 ng/ml TNF-alpha (Peprotech), 10 ng/ml IL-1beta (Peprotech), 1000 U/ml IL-6 (Peprotech), 1 microg/ml PGE2 (Sigma) and 800 U/ml GM-CSF for 24 hr (Jonuleit et al., 1997).
(§1) Ligands or vehicle control (50% DMSO/ethanol) were added to the cell culture starting from the first day.
Microarray experiment. Total RNA was isolated using Trizol Reagent (Invitrogen) and further purified by using the RNeasy kit (Quiagen). cRNA was generated from 5 microg of total RNA by using the SuperScript Choice kit (Invitrogen) and the High Yield RNA transcription labeling kit (Enzo Diagnostics). Fragmented cRNA was hybridized to Affymetrix (Santa Clara, Calif.) arrays (HU95A) according to Affymetrix standard protocols. Preliminary data analysis was performed by the Microarray Core Facility at University of California at Irvine. Further analysis was performed using GeneSpring 6.0 (Silicon Genetics, Redwood City, Calif.). These analyses provided a signal for each specific transcript that was subsequently normalized by comparing to the median signal (arbitrary value of 1.0) obtained from the whole array.
(§2) Real-time RT-PCR. […] The following primers and probes were used: […]

PPARg = target: T1, PPARg (Homo sapiens, UniProt P37231); assay: FABP4 and other PPARg target gene mRNA expression by real-time RT-PCR in differentiating monocyte-derived DC; assay type: cell-based; details: for Induction of FABP4 by receptor-specific agonists: IDC, 2.5 microM RSG, 200 nM GW7845, 1 microM GW501516, 20 microM WY14643, 1 microM T0901317, FIG. 5A
T1 construct: endogenous in cells; host or cells: human monocyte-derived dendritic cells (CD14+ monocytes from buffy coats, GM-CSF + IL-4)
T1 sequence (P37231 1-505): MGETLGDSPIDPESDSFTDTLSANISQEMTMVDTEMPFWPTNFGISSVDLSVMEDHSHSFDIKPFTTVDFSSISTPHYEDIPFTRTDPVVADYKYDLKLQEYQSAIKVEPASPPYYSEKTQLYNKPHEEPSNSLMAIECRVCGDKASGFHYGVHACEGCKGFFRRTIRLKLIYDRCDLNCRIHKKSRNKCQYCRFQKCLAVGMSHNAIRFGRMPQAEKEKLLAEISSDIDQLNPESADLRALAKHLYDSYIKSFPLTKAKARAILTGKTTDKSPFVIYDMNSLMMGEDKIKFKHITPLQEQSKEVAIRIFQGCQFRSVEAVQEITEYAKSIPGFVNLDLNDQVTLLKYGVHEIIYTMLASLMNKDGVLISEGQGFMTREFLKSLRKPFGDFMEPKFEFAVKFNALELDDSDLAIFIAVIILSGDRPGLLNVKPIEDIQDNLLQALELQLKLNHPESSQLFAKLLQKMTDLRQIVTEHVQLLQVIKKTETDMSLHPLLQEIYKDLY
Experimental: DC generation and maturation. Highly enriched monocytes (98% CD14+) were obtained from buffy coats of healthy donors (provided by the local blood center) by Ficoll gradient centrifugation and immunomagnetic cell separation using anti-CD14-conjugated microbeads (VarioMACS; Miltenyi Biotec). […] Cells were cultured for 5 or 6 days and the IL-4 and GM-CSF addition was repeated at day 2 to obtain a population of immature DCs. In some experiments FBS was replaced with human AB serum (Sigma).
as §1, §2

iNKT cells = assay: Expansion of iNKT cells by alpha-GalCer pulsed DC in autologous PBMC coculture; assay type: cell-based, human; details: for Induction of iNKT (Valpha24+ Vbeta11+) cell expansion vs untreated DC: 5-day coculture
Experimental: FACS analysis. Cell staining was performed using alpha-GalCer-loaded APC-labeled CD1d-tetramer (kindly provided by A. Herbelin) and FITC-, Cyc- or PE-conjugated mAbs. Labeled antibodies for flow cytometry included anti-CD161-Cyc, CD8-PE, CD25-PE, CD1a-PE, CD1d-PE, CD86-PE, CD83-PE, CD206-PE, CD3- FITC, CD36-FITC, CD80-FITC, CD209-FITC, HLA-DR-FITC and isotype-matched controls (BD PharMingen), anti-Vbetal 1-PE and anti-Valpha24-FITC (Immunotech). The cells were assessed for fluorescence intensity using EPICS Elite flow cytometer (Beckman Coulter) or with FACS Calibur cytometer (Beckton Dickinson). Data analysis was performed using WinMDI software (Joseph Trotter, The Scripps Research Institute, La Jolla, Calif.).
Expansion of iNKT cells. IDCs were treated with or without the inflammatory mixture as described previously and with 100ng/ml alpha-GalCer for 24 hr to obtain alpha-GalCer-loaded MDC or IDC, respectively. alpha-GalCer pulsed IDCs or MDCs (2×10^5 cells/ml) were cocultured with 2×10^6 monocyte depleted autologous PBMC for 5 days in 24 well plates. The expansion of iNKT cells was monitored by quantifying Valpha24+ Vbetal 1+ and Valpha24+ CD161+ cells by FACS analysis. The specificity of CD1d-restricted NKT cells was also verified by alpha-GalCer loaded APC-labelled CD1d tetramer staining.

O=C(Nc1ccccc1)c1cc([N+](=O)[O-])ccc1Cl [GW9662]
Inhibition of PPARg specific induction of CD1d by antagonist (CD1d; 5 microM GW9662 with 2.5 microM RSG): inhibited
Block of the more pronounced FABP4 increase in human AB serum (PPARg; 5 microM GW9662, FBS replaced with human AB serum): blocked effectively
Inhibition of FABP4 up-regulation by PPARg antagonist (PPARg; 5 microM GW9662, untreated and 2.5 microM RSG treated DC): able to prevent the up-regulation of FABP4; also recorded: inhibited

Cc1cccc(Nc2cc(Cl)nc(SCC(=O)O)n2)c1C [Wy14,643]
Induction of FABP4 by receptor-specific agonists (PPARg): much less potently

COC(=O)c1ccccc1N[C@@H](Cc1ccc(OCCc2nc(-c3ccccc3)oc2C)cc1)C(=O)O [GW7845]
Induction of CD1d by receptor-specific agonists (CD1d): turn on gene expression
Induction of FABP4 by receptor-specific agonists (PPARg): specifically up-regulated

O=S(=O)(c1ccccc1)N(CC(F)(F)F)c1ccc(C(O)(C(F)(F)F)C(F)(F)F)cc1 [T0901317]
Induction of CD1d by receptor-specific agonists (CD1d): failed to activate CD1d

CCCCCCCCCCCCCCCCCCCCCCCCCC(=O)N[C@@H](CO[C@H]1O[C@H](CO)[C@H](O)[C@H](O)[C@H]1O)[C@H](O)[C@H](O)CCCCCCCCCCCCCC [alpha-GalCer, alpha-galactosyl-ceramide]
Expansion of Valpha24+ Vbeta11+ iNKT cells by glycolipid loading of DC (iNKT cells; DC pulsed with 100ng/ml alpha-GalCer for 24 hr, 5 days coculture): necessary for the potent induction; also recorded: remarkable expansion of iNKT cells

CN(CCOc1ccc(CC2SC(=O)NC2=O)cc1)c1ccccn1 (stereo not shown) [RSG, Rosiglitazone]
Induction of iNKT (Valpha24+ Vbeta11+) cell expansion vs untreated DC (iNKT cells; alpha-GalCer loaded RSG treated IDC, depending on the donor): 1.5-10.25 fold
Induction of iNKT (Valpha24+ Vbeta11+) cell expansion vs untreated DC (iNKT cells; alpha-GalCer loaded RSG treated MDC as stimulator): 1.1-4 fold
